The text below walks through data of paper PMC8142146 (Bioorganic chemistry, 2020).

The target of test [1] is T1, PARP1 (Homo sapiens, UniProt P09874). Kind of test: in vitro PARP1 enzyme assay. The settings on record: for inhibition at 5 µM: read-out: PARP1 inhibition at 5 μM; for fold improvement in PARP1 activity compared to lead 4: vs unsubstituted lead 4 (IC50 = 5.8 μM).
Test [2] concerns the target T1, PARP1. Kind of test: BPS PARP1 Chemiluminescent Activity Assay Kit. In kind it is biochemical.
The target in test [3] is T1, PARP1. The settings on record: read-out: PARP1 IC50, literature value; cited from earlier work.

Where two headings read alike, the source gives them in different places. Bounds are passed on as bounds.

T1 sequence (P09874 whole entry): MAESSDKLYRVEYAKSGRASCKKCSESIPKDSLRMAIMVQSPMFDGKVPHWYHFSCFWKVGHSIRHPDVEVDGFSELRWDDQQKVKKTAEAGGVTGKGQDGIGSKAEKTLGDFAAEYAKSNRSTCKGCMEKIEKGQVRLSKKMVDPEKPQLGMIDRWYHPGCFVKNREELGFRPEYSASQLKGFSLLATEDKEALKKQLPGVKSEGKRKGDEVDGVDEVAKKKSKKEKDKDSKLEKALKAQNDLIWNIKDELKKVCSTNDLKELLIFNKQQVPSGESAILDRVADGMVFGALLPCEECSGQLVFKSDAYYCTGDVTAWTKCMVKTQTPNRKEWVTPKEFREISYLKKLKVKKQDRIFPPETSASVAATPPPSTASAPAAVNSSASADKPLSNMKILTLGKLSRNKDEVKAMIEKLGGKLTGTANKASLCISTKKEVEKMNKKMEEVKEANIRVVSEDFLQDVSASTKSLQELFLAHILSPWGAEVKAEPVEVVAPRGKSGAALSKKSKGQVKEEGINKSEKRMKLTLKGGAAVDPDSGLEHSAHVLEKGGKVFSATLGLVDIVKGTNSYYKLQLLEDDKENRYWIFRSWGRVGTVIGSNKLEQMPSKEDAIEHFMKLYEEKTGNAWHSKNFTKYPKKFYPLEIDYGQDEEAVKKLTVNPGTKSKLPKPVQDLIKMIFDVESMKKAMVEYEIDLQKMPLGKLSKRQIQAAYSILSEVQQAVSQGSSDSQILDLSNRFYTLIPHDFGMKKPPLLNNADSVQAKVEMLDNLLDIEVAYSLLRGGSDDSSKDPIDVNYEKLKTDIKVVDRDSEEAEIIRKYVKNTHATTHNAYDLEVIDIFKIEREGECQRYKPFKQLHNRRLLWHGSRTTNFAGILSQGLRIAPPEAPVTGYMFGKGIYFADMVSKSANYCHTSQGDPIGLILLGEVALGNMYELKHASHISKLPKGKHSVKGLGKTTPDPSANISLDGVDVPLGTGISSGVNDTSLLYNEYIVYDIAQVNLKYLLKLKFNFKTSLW

As for `NC(=O)c1cccc2c1OC[C@@H](CN1CCN(c3ncccn3)CC1)O2` [Compound 28a, (R)-2-((4-(Pyrimidin-2-yl)piperazin-1-yl)methyl)-2,3-dihydrobenzo[b][1,4]dioxine-5-carboxamide], the inhibition at 5 µM on PARP1 [1] was less than 20%.

On to `NC(=O)c1cccc2c1O/C(=C\c1ccc(C(=O)O)cc1)C(=O)N2` [Compound 50, (Z)-2-(4-Carboxybenzylidene)-3-oxo-3,4-dihydro-2H-benzo[b][1,4]oxazine-8-carboxamide], for which the half-inhibitory concentration (IC50) against PARP1 [2] turned out to be 420 ± 46 nM.

For `NC(=O)c1cccc2c1O[C@@H](CN1CCN(c3ncccn3)CC1)CO2` [Compound 28b, (S)-3-((4-(Pyrimidin-2-yl)piperazin-1-yl)methyl)-2,3-dihydrobenzo[b][1,4]dioxine-5-carboxamide], at PARP1 [1], the inhibition at 5 µM was less than 20%.

In the case of `NC(=O)c1cccc2c1OC[C@H](CN1CCN(c3ncccn3)CC1)O2` [Compound 23a, (S)-2-((4-(Pyrimidin-2-yl)piperazin-1-yl)methyl)-2,3-dihydrobenzo[b][1,4]dioxine-5-carboxamide], the inhibition at 5 µM on PARP1 [1] was less than 20%.

`NC(=O)c1cccc2c1OCO2` [Compound 31, Benzo[d][1,3]dioxole-4-carboxamide]: the IC50 on PARP1 [3] was 5300 nM.

Consider `CS(=O)(=O)OC[C@@H]1COc2cccc(C(N)=O)c2O1` [Compound 21b, (S)-(8-Carbamoyl-2,3-dihydrobenzo[b][1,4]dioxin-2-yl)methyl methanesulfonate], for which, on PARP1 [1] (vs hydroxymethyl precursor 25a), the “fold improved PARP1 activity over 25a” value is reported as ~ 10 fold. For the same molecule, the “fold improvement in PARP1 activity compared to lead 4” value at PARP1 [1] is ~ 8 fold.

For `CN1CCN(C[C@@H]2COc3c(cccc3C(N)=O)O2)CC1` [Compound 27a, (R)-2-((4-Methylpiperazin-1-yl)methyl)-2,3-dihydrobenzo[b][1,4]dioxine-5-carboxamide], at PARP1 [1], the inhibition at 5 µM is less than 20%.

In the case of `NC(=O)c1cccc2c1O[C@H](CN1CCN(c3ncccn3)CC1)CO2` [Compound 23b, (R)-3-((4-(Pyrimidin-2-yl)piperazin-1-yl)methyl)-2,3-dihydrobenzo[b][1,4]dioxine-5-carboxamide], the inhibition at 5 µM at PARP1 [1] is less than 20%.

On to `CN1CCN(C[C@H]2COc3c(cccc3C(N)=O)O2)CC1` [Compound 22a, (S)-2-((4-Methylpiperazin-1-yl)methyl)-2,3-dihydrobenzo[b][1,4]dioxine-5-carboxamide], for which the inhibition at 5 µM on PARP1 [1] is less than 20%.

Take `CN1CCN(C[C@H]2COc3cccc(C(N)=O)c3O2)CC1` [Compound 27b, (S)-3-((4-Methylpiperazin-1-yl)methyl)-2,3-dihydrobenzo[b][1,4]dioxine-5-carboxamide]: the inhibition at 5 µM on PARP1 [1] is less than 20%.

Turning to `CS(=O)(=O)OC[C@H]1COc2cccc(C(N)=O)c2O1` [Compound 26b, (R)-(8-Carbamoyl-2,3-dihydrobenzo[b][1,4]dioxin-2-yl)methyl methanesulfonate], the “fold improvement in PARP1 activity compared to lead 4” value at PARP1 [1] was ~ 5 fold.

Turning to `CN1CCN(C[C@@H]2COc3cccc(C(N)=O)c3O2)CC1` [Compound 22b, (R)-3-((4-Methylpiperazin-1-yl)methyl)-2,3-dihydrobenzo[b][1,4]dioxine-5-carboxamide], the inhibition at 5 µM on PARP1 [1] was less than 20%.

In the case of `NC(=O)c1cccc2c1OCCN2` [Compound 44, 3,4-Dihydro-2H-benzo[b][1,4]oxazine-8-carboxamide], the “fold less potent than 4 (PARP1)” value on PARP1 [1] (vs 4) is on record as ~ 2 fold.

Consider `NC(=O)c1cccc2c1OCCCO2` [Compound 32, 3,4-Dihydro-2H-benzo[b][1,4]dioxepine-6-carboxamide], for which the inhibition at 2.5 µM on PARP1 [1] (read-out: PARP1 inhibition at 2.5 μM) stood at 15%.

Consider `NC(=O)c1cccc2c1OCC(=O)N2` [Compound 45, 3-Oxo-3,4-dihydro-2H-benzo[b][1,4]oxazine-8-carboxamide], for which, on PARP1 [1] (vs 44), the “fold enhanced PARP1 activity in comparison to 44” value came out at 15 fold.
